Assay results from PMC6691884 (Journal of Enzyme Inhibition and Medicinal Chemistry, 2019).

Tests used:
[1] = target: T1, BsuCA 1 (Brucella suis, UniProt A0A0H3GDA4); details: activation constant (not association constant); activator; CO2 substrate; 10 mM Tris pH 8.4, 0.1 M Na2SO4, 25 °C; 15 min pre-incubation
T1 construct: gene BS1330_I1823

[2] = target: T2, FtuCA (Francisella tularensis, UniProt Q5NH77); details: activation constant (not association constant); activator; CO2 substrate; 10 mM Tris pH 8.4, 0.1 M Na2SO4, 25 °C; 15 min pre-incubation
T2 construct: gene cynT
T2 sequence (Q5NH77 1-228): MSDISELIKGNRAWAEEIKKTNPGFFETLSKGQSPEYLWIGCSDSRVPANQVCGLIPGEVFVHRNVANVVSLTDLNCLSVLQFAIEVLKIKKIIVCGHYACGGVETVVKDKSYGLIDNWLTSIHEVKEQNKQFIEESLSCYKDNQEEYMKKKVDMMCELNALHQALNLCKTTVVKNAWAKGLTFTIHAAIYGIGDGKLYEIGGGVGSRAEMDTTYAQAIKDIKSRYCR

T1 sequence (A0A0H3GDA4 1-213): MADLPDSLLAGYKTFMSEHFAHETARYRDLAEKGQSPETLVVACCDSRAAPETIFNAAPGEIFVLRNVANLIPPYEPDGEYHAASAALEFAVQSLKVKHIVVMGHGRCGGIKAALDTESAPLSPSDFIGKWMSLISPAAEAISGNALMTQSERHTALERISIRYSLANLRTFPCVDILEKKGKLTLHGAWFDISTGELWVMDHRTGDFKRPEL

Structure (SMILES)	KA (μM)^a / BsuCA1 ^c [1] [µM]	KA (μM)^a / FtuCA^c [2] [µM]
N[C@@H](Cc1cnc[nH]1)C(=O)O [compound 1, L-His]	1.76	40.7
N[C@H](Cc1ccccc1)C(=O)O [compound 4, D-Phe]	1.21	
N[C@@H](Cc1ccc(O)c(O)c1)C(=O)O [compound 5, L-DOPA]	2.07	
N[C@H](Cc1ccc(O)c(O)c1)C(=O)O [compound 6, D-DOPA]		44.8
N[C@@H](Cc1c[nH]c2ccccc12)C(=O)O [compound 7, L-Trp]	1.25	34.1
N[C@H](Cc1c[nH]c2ccccc12)C(=O)O [compound 8, D-Trp]		30.5
N[C@@H](Cc1ccc(O)cc1)C(=O)O [compound 9, L-Tyr]	1.38	
N[C@H](Cc1ccc(O)cc1)C(=O)O [compound 10, D-Tyr]	0.95	
Nc1ccc(C[C@H](N)C(=O)O)cc1 [compound 11, 4-H2N-L-Phe]	1.18	
NCCc1ccc(O)c(O)c1 [compound 13, Dopamine]	1.54	
NCc1ccccn1 [compound 15, 2-Pyridyl-methylamine]	1.62	46.3
NCCN1CCNCC1 [compound 17, 1-(2-Aminoethyl)-piperazine]		51.8
CNC[C@H](O)c1ccc(O)c(O)c1 [compound 19, L-Adrenaline]	0.70	
N[C@@H](CCC(=O)O)C(=O)O [compound 22, L-Glu]		9.13
N[C@H](CCC(=O)O)C(=O)O [compound 23, D-Glu]	1.39	
NC(=O)CC[C@H](N)C(=O)O [compound 24, L-Gln]		45.7
